Data: US20100249082A1, “MODULATORS OF HYPOXIA INDUCIBLE FACTOR-1 AND RELATED USES” (Bionaut Pharmaceuticals INC., priority 2007, published 2010)

How the values were obtained:
[1] = cited from earlier work; for max. plasma concentration: in vivo
[2] = Sample solubility noted in the rubidium uptake assay; format: physicochemical; conditions: DMSO 1.0%
[3] = molecular target: T1, Na^+, K^+-ATPase (Homo sapiens, UniProt P05023); assay: cell-based; conditions: for Rank order: HEK-293, ranked on potency (IC50 value); for inhibition at 0.01 µM / inhibition at 0.1 µM / inhibition at 1 µM / inhibition at 5 µM / inhibition at 10 µM / inhibition at 50 µM: HEK293, HEK-293; for inhibition at 0.01 µM: Log[drug](M) −8.0; for inhibition at 5 µM: Log[drug](M) −5.3; for inhibition at 10 µM: Log[drug](M) −5.0; for inhibition at 50 µM: Log[drug](M) −4.3; for Sample Solubility: HEK-293 screen test wells, 1% DMSO
T1 construct: The HEK-293 cell line endogenously expressing Na^+, K^+-ATPase; endogenous in cells; host or cells: HEK-293
Description: Cells were plated at a density of 50,000 cells/well in 96-well microplates and incubated at 37° C., 5% CO2 until 80-90% confluency was attained

[4] = tested on: HIF-1α expression; assay: Immunoblotting for hypoxia-mediated HIF-1α induction in human tumor cells (Caki-1, Panc-1); format: cell-based; conditions: Caki-1 or Panc-1 cells under hypoxia
[5] = tested on: Na^+, K^+-ATPase; assay: cell-based; conditions: for Inhibition (%) / Normalized Uptake (%): CHO-K1; for Sample Solubility: CHO-K1 screen test wells, 1% DMSO
Description: (§1) Compounds were screened using Ion Channel Research (ICR) technology and a non-radioactive Rubidium Uptake Assay
(§2) For all the test compounds and standard blockers, 100× solutions were used to prepare 1× test doses for Na^+, K^+-ATPase screen in CHO cell line. The final DMSO concentration in each well was 1%.
(§3) • 1. […] Rb^+ Uptake: Cells were washed with 200 μl of Rb^+ Uptake Buffer once and R^+ loaded by application of 198 μl R^+ Uptake Buffer. Compounds were added at 2 μl/well of a 100× stock solution in 100% DMSO in the uptake buffer followed by incubation for 30 minutes at room temperature (c. 22° C.). The total volume in each well was 200 μl (198 μl of R^+ Uptake Buffer and 2 μl of the 100× compound). The 100× compound solution gets diluted in R^+ Uptake Buffer to 1× and the DMSO to 1%. • 3. Wash: Residual R^+ and compound were removed by four successive washes with 200 μl of SPA-Wash Buffer. • 4. Cell Lysis: Intracellular samples were obtained by whole cell lysis with the application of 200 μl Lysis Solution. • 5. Analysis: The level of R^+ in the intracellular samples was measured by ICR8000 (Aurora Biomed Inc., Vancouver, Canada). using flame atomic absorption spectroscopy.

[6] = molecular target: Na^+, K^+-ATPase (Cricetulus griseus, UniProt A0A8C2N4Z0); assay: cell-based; conditions: for inhibition at 0.5 µM / inhibition at 1 µM / inhibition at 5 µM / inhibition at 10 µM / inhibition at 50 µM / inhibition at 100 µM / inhibition at 200 µM / inhibition at 500 µM: CHO-K1; for remaining activity at 0.5 µM / remaining activity at 1 µM / remaining activity at 5 µM / remaining activity at 10 µM / remaining activity at 50 µM / remaining activity at 100 µM / remaining activity at 200 µM / remaining activity at 500 µM: CHO-K1, 0.5 h, read-out: Normalized Uptake (%)
Description: as §1, §2, §3

[7] = tested on: HIF-1α accumulation; assay: Western blot of HIF-1α induced by PHD inhibitor L-mimosone under normoxia in Hep3B cells; format: cell-based; conditions: 200 μM L-mimosone for 18 hours, Western blotting
Description: Abundance of HIF1α and β-actin was determined by Western blotting.

Row | SMILES | max. plasma concentration [1] | IC50 [3] [µM] | Rank order [3] | Sample Solubility [5] | IC50 [6] [µM] | inhibition at 0.01 µM [3] [%] | inhibition at 0.1 µM ([3]; Log[drug](M) −7.0) [%] | inhibition at 0.1 µM ([3]; Log[drug](M) −7.3) [%] | inhibition at 1 µM ([3]; Log[drug](M) −6.0) [%] | inhibition at 1 µM ([3]; Log[drug](M) −6.3) [%] | inhibition at 5 µM [3] [%] | inhibition at 10 µM [3] [%] | inhibition at 50 µM [3] [%] | Sample Solubility [3] | inhibition at 0.5 µM [6] [%] | inhibition at 1 µM [6] [%] | inhibition at 5 µM [6] [%] | inhibition at 10 µM [6] [%] | inhibition at 50 µM [6] [%] | inhibition at 100 µM [6] [%] | further results
1 | C[C@@H]1O[C@@H](O[C@H]2C[C@@H](O)[C@]3(CO)[C@H]4[C@H](O)C[C@]5(C)[C@@H](C6=CC(=O)OC6)CC[C@]5(O)[C@@H]4CC[C@]3(O)C2)[C@H](O)[C@H](O)[C@H]1O [BNC1, ouabain] | about 0.03 μg/mL | – | – | – | – | – | – | – | – | – | – | – | – | – | – | – | – | – | – | – | –
2 | C[C@@H]1O[C@@H](O[C@@H]2C=C3CC[C@@H]4[C@H](CC[C@]5(C)[C@@H](c6ccc(=O)oc6)CC[C@]45O)[C@@]3(C)CC2)[C@H](O)[C@H](O)[C@H]1O [BNC4, proscillaridin, reference compound] | about 0.1 μg/mL | 0.24 | 1 | Good | 46.4 | – | – | – | – | – | – | – | – | – | – | – | – | – | – | – | Sample Solubility [2]: Good; Potency in inhibiting HIF-1α expression relative to BNC1 [4]: about 10 times; Inhibition (%) ([5]; dose 0.50 uM): 1.3%; Normalized Uptake (%) ([5]; dose 0.50 uM): 99.4%; Inhibition (%) ([5]; dose 1.0 uM): 0.0%; Normalized Uptake (%) ([5]; dose 1.0 uM): 100.3%; Inhibition (%) ([5]; dose 5.0 uM): 9.0%; Normalized Uptake (%) ([5]; dose 5.0 uM): 93.8%; Inhibition (%) ([5]; dose 10 uM): 20.6%; Normalized Uptake (%) ([5]; dose 10 uM): 80.5%; Inhibition (%) ([5]; dose 50 uM): 51.8%; Normalized Uptake (%) ([5]; dose 50 uM): 54.6%; Inhibition (%) ([5]; dose 100 uM): 69.8%; Normalized Uptake (%) ([5]; dose 100 uM): 44.0%; Inhibition (%) ([5]; dose 200 uM): 86.7%; Normalized Uptake (%) ([5]; dose 200 uM): 38.2%; Inhibition (%) ([5]; dose 500 uM): 100.0%; Normalized Uptake (%) ([5]; dose 500 uM): 28.7%; Effect on HIF-1α accumulation induced by L-mimosone [7]: eliminated HIF-1α accumulation; plasma half-life in human ([1]; human, according to the literature): about 40 hours
3 | C[C@]12CCC(=NOCCN3CCOCC3)C=C1CCC1C2CC[C@]2(C)[C@@H](c3ccc(=O)oc3)CC[C@]12O (stereo partly drawn) [BP245, 3-[2-(Morpholinoethoxy)imino]-scillarinone] | – | 0.732 | 2 | Good | 93.2 | 0 | 22.1 | 8.3 | 56 | 36 | 92.3 | 94.1 | 100 | Good | 0 | 2.9 | 4.2 | 6.6 | 23.7 | 44.9 | inhibition at 200 µM [6]: 86.5%; inhibition at 500 µM [6]: 100%; remaining activity at 0.5 µM [6]: 98.9%; remaining activity at 1 µM [6]: 96.9%; remaining activity at 5 µM [6]: 96%; remaining activity at 10 µM [6]: 94.3%; remaining activity at 50 µM [6]: 82.4%; remaining activity at 100 µM [6]: 67.6%; remaining activity at 200 µM [6]: 38.7%; remaining activity at 500 µM [6]: 29.3%
4 | C[C@]12CCC(=NOCCCN3CCCCC3)C=C1CCC1C2CC[C@]2(C)[C@@H](c3ccc(=O)oc3)CC[C@]12O (stereo partly drawn) [BP246, 3-[3-(Piperidinopropoxy)imino]-scillarinone] | – | 0.335 | 1 | Good | 57.8 | 0 | 28.5 | 13.9 | 79.1 | 48.5 | 96.3 | 96.1 | 100 | Good | 0 | 2.2 | 12 | 21.5 | 42 | 64.7 | inhibition at 200 µM [6]: 89.3%; inhibition at 500 µM [6]: 100%; remaining activity at 0.5 µM [6]: 95.3%; remaining activity at 1 µM [6]: 93.4%; remaining activity at 5 µM [6]: 84.8%; remaining activity at 10 µM [6]: 76.6%; remaining activity at 50 µM [6]: 58.7%; remaining activity at 100 µM [6]: 39%; remaining activity at 200 µM [6]: 17.5%; remaining activity at 500 µM [6]: 8.2%
